Measurements: ChEMBL document CHEMBL5150050, “Hybrids of small CD4 mimics and gp41-related peptides as dual-target HIV entry inhibitors” (Bioorg Med Chem, 2022)
Where a SMILES comes first, the peptide text is derived from it. [ ]: non-standard residue; d: D form. Nle = CCCC[C@H](N)C(=O)O

Tests used:
[1] = system: TZM; assay: Cytotoxicity against human TZM-bl cells; assay type: toxicity, cell-based
[2] = system: Human immunodeficiency virus 1; assay: Antiviral activity against HIV-1 KP-5mvcR infected in human TZM-bl cells assessed as inhibition of viral entry by measuring reduction in RLU by single round assay; assay type: functional, organism-based; settings: Human immunodeficiency virus 1, KP-5mvcR
[3] = system: Human immunodeficiency virus 1; assay: Antiviral activity against HIV-1 KP-5mvcR infected in human TZM-bl cells assessed as inhibition of viral entry by measuring reduction in RLU at 10 nM by single round assay relative to control; assay type: functional; parameters: scale not given: the % may be the effect or the level left

Compound | IC50 [2] [µM] | Activity [1] | Activity [3] [%]
CC[C@H](C)[C@H](NC(=O)[C@H](CCCCN)NC(=O)[C@H](CCCCN)NC(=O)[C@H](CC(=O)O)NC(=O)[C@H](Cc1c[nH]c2ccccc12)NC(=O)[C@H](CCC(=O)O)NC(=O)[C@H](CCC(=O)O)NC(=O)[C@H](Cc1c[nH]c2ccccc12)NC(C)=O)C(=O)N[C@@H](CCC(=O)O)C(=O)N[C@@H](CCC(=O)O)C(=O)N[C@@H](Cc1ccc(O)cc1)C(=O)N[C@H](C(=O)N[C@@H](CCCCN)C(=O)N[C@@H](CCCCN)C(=O)N[C@H](C(=O)N[C@@H](CCC(=O)O)C(=O)N[C@@H](CCC(=O)O)C(=O)N[C@@H](CC(C)C)C(=O)N[C@H](C(=O)N[C@@H](CCCCN)C(=O)N[C@@H](CCCCN)C(=O)N[C@@H](CO)C(=O)N[C@H](CSCC(=O)NCCCC[C@H](NC(=O)[C@H](CO)NC(=O)CNC(=O)CNC(=O)CNC(=O)CNC(=O)CCC(=O)N[C@@H](CCCNC(=N)N)C(=O)NCCN1CCC(NC(=O)C(=O)Nc2ccc(Cl)cc2)CC1)C(N)=O)C(N)=O)[C@@H](C)CC)[C@@H](C)CC)[C@@H](C)O | 0.15 |  | 
CCCC[C@H](NC(=O)[C@H](Cc1c[nH]c2ccccc12)NC(C)=O)C(=O)N[C@@H](CCC(=O)O)C(=O)N[C@@H](Cc1c[nH]c2ccccc12)C(=O)N[C@@H](CC(=O)O)C(=O)N[C@@H](CCCNC(=N)N)C(=O)N[C@@H](CCCCN)C(=O)N[C@H](C(=O)N[C@@H](CCC(=O)O)C(=O)N[C@@H](CCC(=O)O)C(=O)N[C@@H](Cc1ccc(O)cc1)C(=O)N[C@H](C(=O)N[C@@H](CCCCN)C(=O)N[C@@H](CCCCN)C(=O)N[C@H](C(=O)N[C@@H](CCCCN)C(=O)N[C@@H](CCCCN)C(=O)N[C@@H](CC(C)C)C(=O)N[C@H](C(=O)N[C@@H](CCC(=O)O)C(=O)N[C@@H](CCC(=O)O)C(=O)N[C@@H](CO)C(=O)N[C@@H](CCC(N)=O)C(=O)N[C@@H](CCC(=O)O)C(=O)N[C@@H](CCC(N)=O)C(=O)N[C@@H](CCC(N)=O)C(=O)N[C@@H](CCC(=O)O)C(=O)N[C@@H](CCCCN)C(=O)N[C@@H](CC(N)=O)C(=O)N[C@@H](CCC(=O)O)C(=O)N[C@@H](CCCCN)C(=O)N[C@@H](CCC(=O)O)C(=O)N[C@@H](CC(C)C)C(=O)N[C@@H](CCCCN)C(=O)N[C@H](CSCC(=O)NCCCC[C@H](NC(=O)[C@H](CO)NC(=O)CNC(=O)CNC(=O)CNC(=O)CNC(=O)CCC(=O)N[C@@H](CCCNC(=N)N)C(=O)NCCN1CCC(NC(=O)C(=O)Nc2ccc(Cl)cc2)CC1)C(N)=O)C(N)=O)[C@@H](C)CC)[C@@H](C)CC)[C@@H](C)O)[C@@H](C)CC | < 0.01 |  | 95.6
CCCC[C@H](NC(=O)[C@H](Cc1c[nH]c2ccccc12)NC(C)=O)C(=O)N[C@@H](CCC(=O)O)C(=O)N[C@@H](Cc1c[nH]c2ccccc12)C(=O)N[C@@H](CC(=O)O)C(=O)N[C@@H](CCCNC(=N)N)C(=O)N[C@@H](CCCCN)C(=O)N[C@H](C(=O)N[C@@H](CCC(=O)O)C(=O)N[C@@H](CCC(=O)O)C(=O)N[C@@H](Cc1ccc(O)cc1)C(=O)N[C@H](C(=O)N[C@@H](CCCCN)C(=O)N[C@@H](CCCCN)C(=O)N[C@H](C(=O)N[C@@H](CCCCN)C(=O)N[C@@H](CCCCN)C(=O)N[C@@H](CC(C)C)C(=O)N[C@H](C(=O)N[C@@H](CCC(=O)O)C(=O)N[C@@H](CCC(=O)O)C(=O)N[C@@H](CO)C(=O)N[C@@H](CCC(N)=O)C(=O)N[C@@H](CCC(=O)O)C(=O)N[C@@H](CCC(N)=O)C(=O)N[C@@H](CCC(N)=O)C(=O)N[C@@H](CCC(=O)O)C(=O)N[C@@H](CCCCN)C(=O)N[C@@H](CC(N)=O)C(=O)N[C@@H](CCC(=O)O)C(=O)N[C@@H](CCCCN)C(=O)N[C@@H](CCC(=O)O)C(=O)N[C@@H](CC(C)C)C(=O)N[C@@H](CCCCN)C(N)=O)[C@@H](C)CC)[C@@H](C)CC)[C@@H](C)O)[C@@H](C)CC (Ac-W[Nle]EWDRKIEEYTKKIKKLIEESQEQQEKNEKELK-NH2) | 0.00064 | Non-Toxic | 
O=C1Nc2ccc(Cl)cc2[C@@](C#CC2CC2)(C(F)(F)F)O1 [EFAVIRENZ] | 0.011 |  | 
enfuvirtide | 0.032 |  | 

More lines, in order of falling IC50 [2], values ahead:

IC50 [2] [µM] | Compound | Activity [1] | Activity [3] [%]
0.145 | N=C(N)NCCCCC(=O)NCCN1CCC(NC(=O)C(=O)Nc2ccc(Cl)cc2)CC1 | Non-Toxic | 
0.06 | Ac-WEEWDKKIEEYTKKIEELIKKS-NH2 | Non-Toxic | 
0.0055 | CCCC[C@H](NC(=O)[C@H](Cc1c[nH]c2ccccc12)NC(C)=O)C(=O)N[C@@H](CCC(=O)O)C(=O)N[C@@H](Cc1c[nH]c2ccccc12)C(=O)N[C@@H](CC(=O)O)C(=O)N[C@@H](CCCNC(=N)N)C(=O)N[C@@H](CCCCN)C(=O)N[C@H](C(=O)N[C@@H](CCC(=O)O)C(=O)N[C@@H](CCC(=O)O)C(=O)N[C@@H](Cc1ccc(O)cc1)C(=O)N[C@H](C(=O)N[C@@H](CCCCN)C(=O)N[C@@H](CCCCN)C(=O)N[C@H](C(=O)N[C@@H](CCCCN)C(=O)N[C@@H](CCCCN)C(=O)N[C@@H](CC(C)C)C(=O)N[C@H](C(=O)N[C@@H](CCC(=O)O)C(=O)N[C@@H](CCC(=O)O)C(=O)N[C@@H](CO)C(=O)N[C@@H](CCC(N)=O)C(=O)N[C@@H](CCC(=O)O)C(=O)N[C@@H](CCC(N)=O)C(=O)N[C@@H](CCC(N)=O)C(=O)N[C@@H](CCC(=O)O)C(=O)N[C@@H](CCCCN)C(=O)N[C@@H](CC(N)=O)C(=O)N[C@@H](CCC(=O)O)C(=O)N[C@@H](CCCCN)C(=O)N[C@@H](CCC(=O)O)C(=O)N[C@@H](CC(C)C)C(=O)N[C@@H](CCCCN)C(=O)N[C@H](CSCC(=O)NCc1cn(CCCC[C@H](NC(=O)[C@H](CO)NC(=O)CNC(=O)CNC(=O)CNC(=O)CNC(=O)CCC(=O)N[C@@H](CCCNC(=N)N)C(=O)NCCN2CCC(NC(=O)C(=O)Nc3ccc(Cl)cc3)CC2)C(N)=O)nn1)C(N)=O)[C@@H](C)CC)[C@@H](C)CC)[C@@H](C)O)[C@@H](C)CC |  | 
